Data: article PMC12363342, “Investigating the N-terminal linker histone H1 subtypes as substrates for JmjC lysine demethylases” (RSC Chemical Biology, 2025)
Square brackets hold non-standard residues; d marks the D form. Ends that are not written are not given here. Lys(Me3) = C[N+](C)(C)CCCC[C@H](N)C(=O)O

Key:
KDM3C = test: LC-MS demethylation activity assay, KDM3C; assay type: biochemical, human; details: 2 μM KDM, 10 μM H1/H3 peptide, 10 μM FAS, 100 μM LAA, 20 μM 2OG, 50 mM HEPES pH 7.5, 2 h, room temperature, T (tri-) initial methylation state
How it was run: (§1)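 H1 isoform peptides (10 μM) were incubated 2 h at room temperature with 2 μM recombinant N-terminally His6-tagged catalytic domains in 50 mM HEPES pH 7.5 containing FAS (10 μM), ascorbate (100 μM) and 2OG (20 μM). Reactions were quenched with formic acid (1% final), and demethylation was analysed by LC-MS (Q-TOF).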

KDM4D = target: T1, KDM4D (Homo sapiens, UniProt Q6B0I6); test: LC-MS demethylation activity assay, KDM4D; assay type: biochemical; details: room temperature; for substrate conversion (demethylation) by KDM4D / di-methylated product formed by KDM4D / mono-methylated product formed by KDM4D: 2 μM KDM4D, 10 μM peptide; for substrate conversion (demethylation) by KDM4D / KDM4D demethylation activity, T: 10 μM FAS, 100 μM LAA, 20 μM 2OG; for substrate conversion (demethylation) by KDM4D: HEPES pH 7.5, 2 h; for di-methylated product formed by KDM4D / mono-methylated product formed by KDM4D: standard conditions, 2 h; for KDM4D demethylation activity, T: 2 μM KDM, 10 μM H1/H3 peptide, 50 mM HEPES pH 7.5, 2 h, T (tri-) initial methylation state
T1 construct: KDM4AM1-L359,[38]; KDM4DM1-L359,[39]; KDM4EM1-R336,[30]; His6 (N); made in house; host or cells: Escherichia coli
T1 sequence (Q6B0I6 1-359): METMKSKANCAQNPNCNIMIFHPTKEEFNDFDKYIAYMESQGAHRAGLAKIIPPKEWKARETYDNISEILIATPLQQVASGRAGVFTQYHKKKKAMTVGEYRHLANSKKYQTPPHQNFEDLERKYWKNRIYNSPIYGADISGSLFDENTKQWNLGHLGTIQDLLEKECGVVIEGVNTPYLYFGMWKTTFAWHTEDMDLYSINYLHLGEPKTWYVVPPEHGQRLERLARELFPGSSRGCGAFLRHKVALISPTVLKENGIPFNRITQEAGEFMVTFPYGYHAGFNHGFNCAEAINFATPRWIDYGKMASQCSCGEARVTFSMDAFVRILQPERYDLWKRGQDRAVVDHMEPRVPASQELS
How it was run: as §1

KDM6B = test: LC-MS demethylation activity assay, KDM6B; assay type: biochemical, human; details: 2 μM KDM, 10 μM H1/H3 peptide, 10 μM FAS, 100 μM LAA, 20 μM 2OG, 50 mM HEPES pH 7.5, 2 h, room temperature, T (tri-) initial methylation state
How it was run: as §1

KDM4A = test: LC-MS demethylation activity assay, KDM4A; assay type: biochemical, human; details: 10 μM FAS, 100 μM LAA, 20 μM 2OG, room temperature; for substrate conversion (demethylation) by KDM4A: 2 μM KDM4A, 10 μM peptide, HEPES pH 7.5, 2 h; for KDM4A demethylation activity, T: 2 μM KDM, 10 μM H1/H3 peptide, 50 mM HEPES pH 7.5, 2 h, T (tri-) initial methylation state
How it was run: as §1

Substance | KDM3C demethylation activity, T (KDM3C) | substrate conversion (demethylation) by KDM4D (KDM4D) [%] | di-methylated product formed by KDM4D (KDM4D) [%] | mono-methylated product formed by KDM4D (KDM4D) [%] | KDM4D demethylation activity, T (KDM4D) | KDM6B demethylation activity, T (KDM6B) | substrate conversion (demethylation) by KDM4A (KDM4A) [%] | KDM4A demethylation activity, T (KDM4A)
KKKAAK[Lys(Me3)]AGGTPRKA [Peptide H1.2K26me3, 15-mer linker histone H1.2 residues 20-34 peptide, tri-methylated K26] | ● [red] | ~70 | ~30 | ~40 | ● [green] (green dots indicate good demethylation (>50% conversion)) | ● [red] | ~51 | ● [yellow] (yellow dots indicate moderate demethylation (<50% conversion))
KKKAA[Lys(Me3)]KAGGTPRKA [Peptide H1.2K25me3, 15-mer linker histone H1.2 residues 20-34 peptide, tri-methylated K25] | ● [red] |  |  |  | ● [red] | ● [red] | ~45 | ● [green] (green dots indicate good demethylation (>50% conversion))
KKKAR[Lys(Me3)]SAGAAKRKA [Peptide H1.4K25me3, 15-mer linker histone H1.4 residues 20-34 peptide, tri-methylated K25] | ● [red] | ~92 | ~30 | ~62 | ● [green] (green dots indicate good demethylation (>50% conversion)) | ● [red] | ~87 | ● [green] (green dots indicate good demethylation (>50% conversion))
KKKATK[Lys(Me3)]AAGAGAAK [Peptide H1.5K26me3, 15-mer linker histone H1.5 residues 20-34 peptide, tri-methylated K26] | ● [red] |  |  |  | ● [green] (green dots indicate good demethylation (>50% conversion)) | ● [red] | < 10 | ● [green] (green dots indicate good demethylation (>50% conversion))
KKKA[Lys(Me3)]KAGATAGKRK [Peptide H1.3K24me3, 15-mer linker histone H1.3 residues 20-34 peptide, tri-methylated K24] | ● [red] | ~68 | ~30 | ~40 | ● [green] (green dots indicate good demethylation (>50% conversion)) | ● [red] | ~36 | ● [green] (green dots indicate good demethylation (>50% conversion))
